According to patent US12209079B2 (GENERAL INCORPORATED ASSOCIATION PHARMA VALLEY PROJECT …, priority 2017, dated 2025):

Key:
IDO in A431 cells = target: T1, IDO in A431 cells (Homo sapiens, UniProt P14902); assay: IDO cell-based assay, kynurenine production in IFN-γ stimulated A431 cells; details: A-431, 24 h; final concentration of the compound 10 μM; rate relative to culture without compound
T1 construct: endogenous in cells; host or cells: A431 cells, IFN-γ stimulated
In short: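 Kynurenine output was read by absorbance at 460 nm after p-dimethylbenzaldehyde/trichloroacetic acid reagent, background-corrected, and given as % of untreated wells. Before the read, cells in 178 μM L-tryptophan medium had 1 h compound preincubation, then 24 h IFN-γ stimulation (added as 100 ng/mL dilution).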

TDO in A172 cells = target: T2, TDO in A172 cells (Homo sapiens, UniProt P48775); assay: TDO cell-based assay, kynurenine production in A172 cells; details: A 172; final concentration of the compound 10 μM; rate relative to culture without compound
T2 construct: endogenous in cells; host or cells: A172 cells
T2 sequence (P48775 whole entry): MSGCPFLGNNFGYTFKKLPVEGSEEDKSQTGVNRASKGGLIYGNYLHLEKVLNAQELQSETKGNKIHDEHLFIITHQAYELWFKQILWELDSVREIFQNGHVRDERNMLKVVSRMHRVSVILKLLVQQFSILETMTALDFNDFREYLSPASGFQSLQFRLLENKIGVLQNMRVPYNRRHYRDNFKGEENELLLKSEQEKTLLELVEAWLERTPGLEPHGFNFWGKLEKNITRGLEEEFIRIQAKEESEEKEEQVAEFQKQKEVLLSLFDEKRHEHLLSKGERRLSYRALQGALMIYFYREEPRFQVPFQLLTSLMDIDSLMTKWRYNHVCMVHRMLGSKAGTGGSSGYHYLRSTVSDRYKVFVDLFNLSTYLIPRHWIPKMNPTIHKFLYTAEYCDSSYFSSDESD
In short: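 A172 cells were preincubated with compound for 1 h, then given L-tryptophan (final 524 μM) for 24 h at 37 °C. Kynurenine was read at 460 nm after p-dimethylbenzaldehyde/TCA reagent, background-subtracted, and expressed as % of no-compound production.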

[1] = system: subcutaneous CT-26WT syngeneic graft of large intestine cancer; assay: Drug efficacy test, combined use of compound 1, 15 or 29 and oxaliplatin, mice with subcutaneous CT-26WT syngeneic graft (Test Example 4); type: in vivo, mouse; details: 40 mg/kg oral twice a day, combined with oxaliplatin 10 mg/kg i.v.; Balb/c mice; FIG. 3
Protocol: Drug Efficacy Test on Combined Use of Compound 1, Compound 15 or Compound 29 and Oxaliplatin Using Mice with Subcutaneous CT-26WT Syngeneic Graft of Large Intestine Cancer
5×10^5 cells of syngeneic large intestine cancer cell line CT26WT were subcutaneously transplanted to each of 6-week-old female Balb/c mice. The mice were divided into 5 groups each involving 6 individuals 10 days later when the average tumor size was 139 mm^3. The oral administration (solvent for oral administration and 40 mg/kg each of compound 1, compound 15 and compound 29 were administered twice a day at a 5-hour interval from days 1 to 5 and days 8 to 12) and intravenous injection (5% glucose solution and 10 mg/kg oxaliplatin were administered once a day on days 1 and 8) of each agent were started. Then, the major axis and minor axis of subcutaneous tumor were measured three times a week using calipers, and a mean and standard error of the mean of the ratios of the calculated volumes to the volumes at the administration start day in each group were plotted. The calculation expression was Volume (mm^3)=[Width^2 (mm^2)×Length (mm)]/2. The solvent group, compound 1 and compound 15 were each dissolved in a solvent for oral administration of DMSO:PEG400:PBS=10:40:150, and compound 29 was dissolved in a solvent for oral administration of DMSO:PEG400:PBS=20:80:50.
∘: the solvent for oral administration and the 5% glucose solution, •: the solvent for oral administration and oxaliplatin, ▴: compound 1 and oxaliplatin, ▪: compound 15 and oxaliplatin, and x: compound 29 and oxaliplatin.

[2] = system: subcutaneous CT-26CL25 syngeneic graft of large intestine cancer; assay: Drug efficacy test, combined use of compound 1 and oxaliplatin, mice with subcutaneous CT-26CL25 syngeneic graft (Test Example 3); type: in vivo, mouse; details: 40 mg/kg oral twice a day, combined with oxaliplatin 10 mg/kg i.v.; Balb/c mice; FIG. 2
Protocol: Drug Efficacy Test on Combined Use of Compound 1 and Oxaliplatin Using Mice with Subcutaneous CT-26CL25 Syngeneic Graft of Large Intestine Cancer
5×10^5 cells of syngeneic large intestine cancer cell line CT26CL25 were subcutaneously transplanted to each of 8-week-old female Balb/c mice. The mice were divided into 4 groups each involving 8 individuals 10 days later when the average tumor size was 185 mm^3. The oral administration (solvent for oral administration and 40 mg/kg compound 1 were administered twice a day at a 5-hour interval from days 1 to 5 and days 8 to 12) and intravenous administration (5% glucose solution and 10 mg/kg oxaliplatin were administered once a day on days 1 and 8) of each agent were started. Then, the major axis and minor axis of subcutaneous tumor were measured three times a week using calipers, and a mean and standard error of the mean of the ratios of the calculated volumes to the volumes at the administration start day in each group were plotted. The calculation expression was Volume (mm^3)=[Width^2 (mm^2)×Length (mm)]/2. Compound 1 was dissolved in a solvent for oral administration of DMSO:PEG400:PBS=5:20:75.
∘: the solvent for oral administration and the 5% glucose solution, •: the solvent for oral administration and oxaliplatin, Δ: compound 1 and the 5% glucose solution, and ▴: compound 1 and oxaliplatin.

T1 sequence (P14902 whole entry): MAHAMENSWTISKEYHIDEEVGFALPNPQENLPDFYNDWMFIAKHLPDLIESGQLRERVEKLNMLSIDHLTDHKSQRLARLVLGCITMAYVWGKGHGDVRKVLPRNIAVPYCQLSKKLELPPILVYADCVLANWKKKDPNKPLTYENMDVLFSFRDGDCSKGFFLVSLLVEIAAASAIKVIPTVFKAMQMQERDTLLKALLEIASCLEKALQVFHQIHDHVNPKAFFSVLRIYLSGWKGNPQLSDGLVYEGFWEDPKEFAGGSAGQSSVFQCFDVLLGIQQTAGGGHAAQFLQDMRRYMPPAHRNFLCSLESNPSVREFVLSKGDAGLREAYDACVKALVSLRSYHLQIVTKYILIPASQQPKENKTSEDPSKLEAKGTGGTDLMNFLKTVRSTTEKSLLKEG

remaining activity at 10 µM (IDO in A431 cells) [%]	remaining activity at 10 µM (TDO in A172 cells) [%]	SMILES	tumor growth (ratio of tumor volume to start day) [1]	tumor growth (ratio of tumor volume to start day) [2]
4	8	N/C(=N\c1ccc(Br)cc1)SCc1ccc(Br)cc1CS/C(N)=N/c1ccc(Br)cc1 [Compound 49, (4-Bromo-1,2-phenylene)bis(methylene) (E,E)-bis(N′-(4-bromophenyl)carbamimidothioate)]		
13	20	Br.Br.N=C(N)SCc1ccsc1CSC(=N)N [Compound 31, thiophene-2,3-diylbis(methylene) dicarbamimidothioate dihydrobromide]		
4	4	Clc1cc(CSC2=NCN(CC3CCCCC3)CN2)c(CSC2=NCN(CC3CCCCC3)CN2)cc1Cl [Compound 50, 6,6′-(((4,5-Dichloro-1,2-phenylene)bis(methylene))bis(sulfanediyl))bis(3-(cyclohexylmethyl)-1,2,3,4-tetrahydro-1,3,5-triazine)]		
-1	2	Br.Br.N=C(N)SCc1ccc(Br)cc1CSC(=N)N [Compound 10, (4-bromo-1,2-phenylene)bis(methylene) dicarbamimidothioate dihydrobromide]		
0	-1	Br.Br.N=C(N)SCc1ccc(Cl)cc1CSC(=N)N [Compound 7, (4-chloro-1,2-phenylene)bis(methylene) dicarbamimidothioate dihydrobromide]		
12	7	Br.Br.N=C(N)SCc1cscc1CSC(=N)N [Compound 15, thiophene-3,4-diylbis(methylene) dicarbamimidothioate dihydrobromide]	can suppress tumor growth	
11	-3	Cl.Cl.N=C(N)SCc1ccccc1CSC(=N)N [Compound 1, 1,2-phenylenebis(methylene) dicarbamimidothioate dihydrochloride]	can suppress tumor growth	can suppress tumor growth
10	0	c1ccc(CSC2=NCN(CC3CCCCC3)CN2)c(CSC2=NCN(CC3CCCCC3)CN2)c1 [Compound 29, 1,2-bis(((5-(cyclohexylmethyl)-1,4,5,6-tetrahydro-1,3,5-triazin-2-yl)thio)methyl)benzene]	can suppress tumor growth	
7	7	Br.Br.N=C(N)SCc1ccc(F)cc1CSC(=N)N [Compound 2, (4-fluoro-1,2-phenylene)bis(methylene) dicarbamimidothioate dihydrobromide]		
1	5	Brc1ccc(CSC2=NCN(CC3CCCCC3)CN2)c(CSC2=NCN(CC3CCCCC3)CN2)c1 [Compound 52, 6,6′-(((4-Bromo-1,2-phenylene)bis(methylene))bis(sulfanediyl))bis(3-(cyclohexylmethyl)-1,2,3,4-tetrahydro-1,3,5-triazine)]		
2	-7	Br.Br.N/C(=N\c1ccc(F)cc1F)SCc1ccccc1CS/C(N)=N/c1ccc(F)cc1F [Compound 95, 1,2-Phenylenebis(methylene) (E,E)-bis(N-(2,4-difluorophenyl)carbamimidothioate)dihydrobromide]		

SMILES	remaining activity at 10 µM (IDO in A431 cells) [%]	remaining activity at 10 µM (TDO in A172 cells) [%]	tumor growth (ratio of tumor volume to start day) [1]	tumor growth (ratio of tumor volume to start day) [2]
Cl.Cl.c1ccc(CCN2CN=C(SCc3cscc3CSC3=NCN(CCc4ccccc4)CN3)NC2)cc1 [Compound 33, 3,4-Bis{[(5-phenethyl-1,4,5,6-tetrahydro-1,3,5-triazin-2-yl)thio]methyl}thiophene dihydrochloride]	3	4		
Br.N#Cc1ccc(CNC(=O)c2cc(Br)ccc2CSC(=N)N)cc1 [Compound 103, 4-Bromo-2-((4-cyanobenzyl)carbamoyl)benzyl carbamimidothioate hydrobromide]	3	18		
Clc1cc(CSC2=NCN(CCc3ccccc3)CN2)c(CSC2=NCN(CCc3ccccc3)CN2)cc1Cl [Compound 37, 6,6′-(((4,5-Dichloro-1,2-phenylene)bis(methylene))bis(sulfanediyl))bis(3-phenethyl-1,2,3,4-tetrahydro-1,3,5-triazine)]	1	-9		
Br.N#Cc1ccc(CNC(=O)c2ccc(Br)cc2CSC(=N)N)cc1 [Compound 76, 5-Bromo-2-((4-cyanobenzyl)carbamoyl)benzyl carbamimidothioate hydrobromide]	82	24		
